Measurements reported in patent US9340577B2, “HLA binding motifs and peptides and their uses” (priority 1992, dated 2016).
pIC50: −log10 of the molar value. No end group written: not given here.

Key:
Experiment in all cases: biochemical
DR4w4 (DRB1*0401) = DR4w4 (DRB1*0401) (Homo sapiens, UniProt P01903+P01911, A100K/A169T/F76Y/I96L/K127E/L162R/M171V/N62H/P40V/Q125Y/R42H/S133A/S149N/S66Y/V115G/V209L/W38E); format: binding
DR7 (DRB1*0701) = DR7 (DRB1*0701) (Homo sapiens, UniProt P01903+P01911, A100R/A102G/A103Q/D57E/D86V/E43K/F76Y/K127E/L162R/M171V/P40G/Q125H/Q99D/R33Q/R42Y/R54Q/S133A/S66F/T210M/V115G/Y107V/Y59L/Y89S); format: binding
DRB1*0301 = DRB1*0301 (Homo sapiens, UniProt P01903+P01911, A100K/A102G/A103R/A169T/F55Y/I96L/K41T/L162R/M171V/P40S/Q125H/Q178H/Q39Y/R42S/S66N/T106N/T262R/W38E/Y61H); format: binding
DRB1*0301, sequence (P01903 26-254 limits assumed, other chains not shown): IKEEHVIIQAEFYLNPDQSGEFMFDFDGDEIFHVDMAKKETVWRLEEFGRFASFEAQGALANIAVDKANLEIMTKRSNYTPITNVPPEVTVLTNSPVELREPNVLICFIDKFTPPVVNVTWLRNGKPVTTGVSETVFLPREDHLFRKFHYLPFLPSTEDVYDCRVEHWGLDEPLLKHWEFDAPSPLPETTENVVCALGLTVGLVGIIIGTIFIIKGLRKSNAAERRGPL

DRB1*0901 = DRB1*0901 (Homo sapiens, UniProt P01903+P01911, A100R/A103E/D57H/D86V/F55Y/F60I/F76Y/I96F/K127E/L162R/M171V/P40D/Q125H/Q99R/R33Q/R42F/S133A/S66N/T210M/V115G/W38K/Y107V/Y59G/Y89S); format: binding
DRB1*1201 = DRB1*1201 (Homo sapiens, UniProt P01903+P01911, A100R/A169T/D57E/D86V/F55L/H45Y/K41T/L162R/M171V/P40S/Q125H/Q178H/Q39Y/Q99D/R42G/S66L/T262R/V114A/V67L/W38E/Y59H/Y61H/Y89S); format: binding
DRB1*1302 = DRB1*1302 (Homo sapiens, UniProt P01903+P01911, A100E/A169T/K41T/L162R/M171V/P40S/Q125H/Q178H/Q39Y/Q99D/R42S/S66N/T262R/V115G/W38E/Y61H); format: binding
DRB1*1302, sequence (P01903 26-254 limits assumed, other chains not shown): as above

DRB1*1501 = DRB1*1501 (Homo sapiens, UniProt P01903+P01911); format: binding
DRB4*0101 = DRB4*0101 (Homo sapiens, UniProt P01903+P13762, G164S); format: binding
DRB1*1101 = DRB1*1101 (Homo sapiens, UniProt P01903+P01911, A100R/A169T/A87E/I96F/K41T/L162R/M171V/P40S/Q125H/Q178H/Q39Y/Q99D/R42S/S66Y/T262R/V115G/W38E); conditions: Binding affinity DRB1 *1101
DRB1*1101, sequence (P01903 26-254 limits assumed, other chains not shown): as above

DR1 (DRB1*0101) = DR1 (DRB1*0101) (Homo sapiens, UniProt P01903+P01911, A100R/D57E/F55L/F60I/F76Y/I96L/L162R/M171V/P40L/Q125E/R42F/V115G/Y59C); format: binding
DRB1*0802 = DRB1*0802 (Homo sapiens, UniProt P01903+P01911, A100R/A103L/A169T/F76Y/H45Y/I96F/K41T/L162R/M171V/P40S/Q125H/Q178H/Q39Y/Q99D/R218S/R42G/S66Y/V115G/W38E); format: binding
DRB5*0101 = DRB5*0101 (Homo sapiens, UniProt P01903+Q30154); conditions: Binding affinity DRB5 *0101

| Sequence | pIC50 (DR4w4 (DRB1*0401)) | pIC50 (DR7 (DRB1*0701)) | pIC50 (DRB1*0301) | pIC50 (DRB1*0901) | pIC50 (DRB1*1201) | pIC50 (DRB1*1302) | pIC50 (DRB1*1501) | pIC50 (DRB4*0101) | pIC50 (DRB1*1101) | pIC50 (DR1 (DRB1*0101)) | pIC50 (DRB1*0802) | pIC50 (DRB5*0101) |
| --- | --- | --- | --- | --- | --- | --- | --- | --- | --- | --- | --- | --- |
| KSLFGMSLMKFLQGS [Peptide 89.0020] | 6.24 | 7.68 | < 4.70 | 6.51 | 6.03 | 5.33 | 5.68 | 6.35 | 6.27 |  |  |  |
| RLTVAKGLSTLLHVP [Peptide 89.0028] | 7.28 | 6.74 | 4.84 | 6.40 | 6.56 | 6.17 |  | 6.39 | 6.63 | 7.34 | 6.30 |  |
| LKSFLKGTPKKNCLV [Peptide 89.0035] | 6.49 |  | < 4.70 | 5.57 | 5.49 | 6.37 | 5.29 | 5.32 |  | 7.52 | 6.68 |  |
| IHFIQGAVISFVNST [Peptide 89.0037] | 5.29 | 6.47 | < 4.70 |  | 6.14 |  | 5.16 | 6.81 | < 4.70 | 7.51 | 4.93 | < 4.70 |
| GKSLFGMSLMKFLQG [Peptide 89.0019] | 6.33 | 7.80 | 5.56 | 6.83 | 7.10 | 5.69 | 5.56 | 6.43 | 5.87 | 7.77 | 6.15 | 6.29 |
| RLNVCQDKILTHYEN [Peptide 90.0160] | 8.46 | 5.10 | 6.51 | 7.30 | 6.59 | 7.02 | 5.42 | 9.21 | 6.43 | 8.57 |  | 5.79 |
| NCILLYGAANTGKSL [Peptide 89.0017] |  | < 4.70 | < 4.70 |  | < 4.70 | 5.67 |  | 6.28 | 5.24 | 7.09 | 5.57 | 6.35 |
| TVTFVTEQQQQMFLG [Peptide 90.0210] |  | < 4.70 | 7.39 | < 4.70 | 5.56 | < 4.70 | < 4.70 |  | < 4.70 | 5.71 | 5.22 | < 4.70 |
| LKLFLKGVPKKNCIL [Peptide 89.0054] | 5.54 |  | 5.00 | 5.70 | 5.76 | 5.47 | 5.47 | 6.21 |  | 6.70 | 6.47 |  |
